{"source": "patent US20100297692A1", "about": "“REACTION MEDIUM FOR DETECTING AND/OR IDENTTIFYING STAPHYLOCCOUS AUREUS” (BIOMERIEUX, priority 2007, published 2010)", "test_in_all_cases": "β-D-ribosidase substrates in Columbia agar, colored or fluorescent colonies", "key": {"[1]": {"test_system": "Alpha-hemolytic streptococci", "assay_type": "cell-based, alpha-hemolytic Streptococcus", "procedure": "(§1) The media hereinafter were prepared in 200 ml of a Columbia agar base (Oxoid), in combination with the chromogenic β-D-ribosidase substrates. The various substrates and also the concentrations and the additives used in the media are described in Table 1 below:\n(§2) The β-D-ribosidase substrates are solubilized in DMSO and added to the media so as to obtain the concentrations indicated in Table 1.\n(§3) 191 bacterial strains were inoculated onto each of the media using a suspension at 0.5 MacFarland diluted to 1/1000. The dishes were incubated at 37° C. and then read.\n(§4) The media were distributed into Petri dishes, then inoculated with approximately 100 000 CFU, then incubated at 37° C. for 48 h. The colonies formed were examined visually after incubation times of 18, 24 and 48 hours.\n(§5) The stock collection of 191 strains comprised: […], 48 Staphylococcus spp, 61 Enterococcus spp and 3 alpha-hemolytic Streptococcus."}, "[2]": {"test_system": "Coagulase-negative Staphylococci", "assay_type": "cell-based, Staphylococcus spp", "conditions": "Coagulase-negative Staphylococci", "procedure": "as §1, §2, §3, §4, §5"}, "S. aureus (MRSA)": {"test_system": "S. aureus (MRSA)", "assay_type": "cell-based, Staphylococcus aureus", "procedure": "as §1, §2, §3, §4, §5"}, "S. aureus (MSSA)": {"test_system": "S. aureus (MSSA)", "assay_type": "cell-based, Staphylococcus aureus", "procedure": "as §1, §2, §3, §4, §5"}, "Micrococcus luteus": {"test_system": "Micrococcus luteus", "assay_type": "cell-based", "procedure": "[The procedure below names another organism; the source lists this organism under the same test.] as §1, §2, §3, §4, §5"}, "Enterococci": {"test_system": "Enterococci", "assay_type": "cell-based, Enterococcus spp", "procedure": "as §1, §2, §3, §4, §5"}, "[3]": {"conditions": "400 mg/L + ammoniacal iron citrate 100 mg/l, 18 h"}, "[4]": {"conditions": "400 mg/L + ammoniacal iron citrate 100 mg/l, 24 h"}, "[5]": {"conditions": "400 mg/L + ammoniacal iron citrate 100 mg/l, 48 h"}}, "data": [{"molecule": "Cc1cc(=O)oc2cc(O[C@@H]3O[C@H](CO)[C@@H](O)[C@H]3O)ccc12", "note": "[4-MU-β-riboside, 4-Methylumbelliferyl-beta-D-riboside]", "values": [{"measurement": "% of strains producing colored or fluorescent colonies", "setting": "[1]; 50 mg/L, 18 h", "value": 0, "unit": "%"}, {"measurement": "% of strains producing colored or fluorescent colonies", "setting": "[1]; 50 mg/L, 24 h", "value": 0, "unit": "%"}, {"measurement": "% of strains producing colored or fluorescent colonies", "setting": "[1]; 50 mg/L, 48 h", "value": 0, "unit": "%"}, {"measurement": "% of strains producing colored or fluorescent colonies", "setting": "[2]; 50 mg/L, 18 h", "value": 82, "unit": "%"}, {"measurement": "% of strains producing colored or fluorescent colonies", "setting": "[2]; 50 mg/L, 24 h", "value": 82, "unit": "%"}, {"measurement": "% of strains producing colored or fluorescent colonies", "setting": "[2]; 50 mg/L, 48 h", "value": 82, "unit": "%"}, {"measurement": "% of strains producing colored or fluorescent colonies", "setting": "S. aureus (MRSA); 50 mg/L, 18 h", "value": 97, "unit": "%"}, {"measurement": "% of strains producing colored or fluorescent colonies", "setting": "S. aureus (MRSA); 50 mg/L, 24 h", "value": 97, "unit": "%"}, {"measurement": "% of strains producing colored or fluorescent colonies", "setting": "S. aureus (MRSA); 50 mg/L, 48 h", "value": 97, "unit": "%"}, {"measurement": "% of strains producing colored or fluorescent colonies", "setting": "S. aureus (MSSA); 50 mg/L, 18 h", "value": 100, "unit": "%"}, {"measurement": "% of strains producing colored or fluorescent colonies", "setting": "S. aureus (MSSA); 50 mg/L, 24 h", "value": 100, "unit": "%"}, {"measurement": "% of strains producing colored or fluorescent colonies", "setting": "S. aureus (MSSA); 50 mg/L, 48 h", "value": 100, "unit": "%"}, {"measurement": "% of strains producing colored or fluorescent colonies", "setting": "Micrococcus luteus; 50 mg/L, 18 h", "value": 0, "unit": "%"}, {"measurement": "% of strains producing colored or fluorescent colonies", "setting": "Micrococcus luteus; 50 mg/L, 24 h", "value": 0, "unit": "%"}, {"measurement": "% of strains producing colored or fluorescent colonies", "setting": "Micrococcus luteus; 50 mg/L, 48 h", "value": 0, "unit": "%"}, {"measurement": "% of strains producing colored or fluorescent colonies", "setting": "Enterococci; 50 mg/L, 18 h", "value": 57, "unit": "%"}, {"measurement": "% of strains producing colored or fluorescent colonies", "setting": "Enterococci; 50 mg/L, 24 h", "value": 57, "unit": "%"}, {"measurement": "% of strains producing colored or fluorescent colonies", "setting": "Enterococci; 50 mg/L, 48 h", "value": 49, "unit": "%"}]}, {"molecule": "OC[C@H]1O[C@@H](Oc2c[nH]c3cc(Cl)ccc23)[C@H](O)[C@@H]1O", "note": "[Pink-β-riboside, 6-Chloro-3-indoxyl-beta-D-riboside]", "values": [{"measurement": "% of strains producing colored or fluorescent colonies", "setting": "[1]; 100 mg/L, 18 h", "value": 0, "unit": "%"}, {"measurement": "% of strains producing colored or fluorescent colonies", "setting": "[1]; 100 mg/L, 24 h", "value": 0, "unit": "%"}, {"measurement": "% of strains producing colored or fluorescent colonies", "setting": "[1]; 100 mg/L, 48 h", "value": 0, "unit": "%"}, {"measurement": "% of strains producing colored or fluorescent colonies", "setting": "[1]; 200 mg/L, 18 h", "value": 0, "unit": "%"}, {"measurement": "% of strains producing colored or fluorescent colonies", "setting": "[1]; 200 mg/L, 24 h", "value": 0, "unit": "%"}, {"measurement": "% of strains producing colored or fluorescent colonies", "setting": "[1]; 200 mg/L, 48 h", "value": 0, "unit": "%"}, {"measurement": "% of strains producing colored or fluorescent colonies", "setting": "[2]; 100 mg/L, 18 h", "value": 3, "unit": "%"}, {"measurement": "% of strains producing colored or fluorescent colonies", "setting": "[2]; 100 mg/L, 24 h", "value": 3, "unit": "%"}, {"measurement": "% of strains producing colored or fluorescent colonies", "setting": "[2]; 100 mg/L, 48 h", "value": 3, "unit": "%"}, {"measurement": "% of strains producing colored or fluorescent colonies", "setting": "[2]; 200 mg/L, 18 h", "value": 3, "unit": "%"}, {"measurement": "% of strains producing colored or fluorescent colonies", "setting": "[2]; 200 mg/L, 24 h", "value": 3, "unit": "%"}, {"measurement": "% of strains producing colored or fluorescent colonies", "setting": "[2]; 200 mg/L, 48 h", "value": 6, "unit": "%"}, {"measurement": "% of strains producing colored or fluorescent colonies", "setting": "S. aureus (MRSA); 100 mg/L, 18 h", "value": 91, "unit": "%"}, {"measurement": "% of strains producing colored or fluorescent colonies", "setting": "S. aureus (MRSA); 100 mg/L, 24 h", "value": 96, "unit": "%"}, {"measurement": "% of strains producing colored or fluorescent colonies", "setting": "S. aureus (MRSA); 100 mg/L, 48 h", "value": 100, "unit": "%"}, {"measurement": "% of strains producing colored or fluorescent colonies", "setting": "S. aureus (MRSA); 200 mg/L, 18 h", "value": 84, "unit": "%"}, {"measurement": "% of strains producing colored or fluorescent colonies", "setting": "S. aureus (MRSA); 200 mg/L, 24 h", "value": 94, "unit": "%"}, {"measurement": "% of strains producing colored or fluorescent colonies", "setting": "S. aureus (MRSA); 200 mg/L, 48 h", "value": 100, "unit": "%"}, {"measurement": "% of strains producing colored or fluorescent colonies", "setting": "S. aureus (MSSA); 100 mg/L, 18 h", "value": 64, "unit": "%"}, {"measurement": "% of strains producing colored or fluorescent colonies", "setting": "S. aureus (MSSA); 100 mg/L, 24 h", "value": 64, "unit": "%"}, {"measurement": "% of strains producing colored or fluorescent colonies", "setting": "S. aureus (MSSA); 100 mg/L, 48 h", "value": 100, "unit": "%"}, {"measurement": "% of strains producing colored or fluorescent colonies", "setting": "S. aureus (MSSA); 200 mg/L, 18 h", "value": 57, "unit": "%"}, {"measurement": "% of strains producing colored or fluorescent colonies", "setting": "S. aureus (MSSA); 200 mg/L, 24 h", "value": 64, "unit": "%"}, {"measurement": "% of strains producing colored or fluorescent colonies", "setting": "S. aureus (MSSA); 200 mg/L, 48 h", "value": 100, "unit": "%"}, {"measurement": "% of strains producing colored or fluorescent colonies", "setting": "Micrococcus luteus; 100 mg/L, 18 h", "value": 0, "unit": "%"}, {"measurement": "% of strains producing colored or fluorescent colonies", "setting": "Micrococcus luteus; 100 mg/L, 24 h", "value": 0, "unit": "%"}, {"measurement": "% of strains producing colored or fluorescent colonies", "setting": "Micrococcus luteus; 100 mg/L, 48 h", "value": 0, "unit": "%"}, {"measurement": "% of strains producing colored or fluorescent colonies", "setting": "Micrococcus luteus; 200 mg/L, 18 h", "value": 0, "unit": "%"}, {"measurement": "% of strains producing colored or fluorescent colonies", "setting": "Micrococcus luteus; 200 mg/L, 24 h", "value": 0, "unit": "%"}, {"measurement": "% of strains producing colored or fluorescent colonies", "setting": "Micrococcus luteus; 200 mg/L, 48 h", "value": 0, "unit": "%"}, {"measurement": "% of strains producing colored or fluorescent colonies", "setting": "Enterococci; 100 mg/L, 18 h", "value": 0, "unit": "%"}, {"measurement": "% of strains producing colored or fluorescent colonies", "setting": "Enterococci; 100 mg/L, 24 h", "value": 0, "unit": "%"}, {"measurement": "% of strains producing colored or fluorescent colonies", "setting": "Enterococci; 100 mg/L, 48 h", "value": 2, "unit": "%"}, {"measurement": "% of strains producing colored or fluorescent colonies", "setting": "Enterococci; 200 mg/L, 18 h", "value": 0, "unit": "%"}, {"measurement": "% of strains producing colored or fluorescent colonies", "setting": "Enterococci; 200 mg/L, 24 h", "value": 0, "unit": "%"}, {"measurement": "% of strains producing colored or fluorescent colonies", "setting": "Enterococci; 200 mg/L, 48 h", "value": 0, "unit": "%"}]}, {"molecule": "Dihydroxyflavone-beta-D-riboside [DHF-β-riboside]", "values": [{"measurement": "% of strains producing colored or fluorescent colonies", "setting": "[1]; [3]", "value": 0, "unit": "%"}, {"measurement": "% of strains producing colored or fluorescent colonies", "setting": "[1]; [4]", "value": 0, "unit": "%"}, {"measurement": "% of strains producing colored or fluorescent colonies", "setting": "[1]; [5]", "value": 0, "unit": "%"}, {"measurement": "% of strains producing colored or fluorescent colonies", "setting": "[2]; [3]", "value": 68, "unit": "%"}, {"measurement": "% of strains producing colored or fluorescent colonies", "setting": "[2]; [4]", "value": 68, "unit": "%"}, {"measurement": "% of strains producing colored or fluorescent colonies", "setting": "[2]; [5]", "value": 91, "unit": "%"}, {"measurement": "% of strains producing colored or fluorescent colonies", "setting": "S. aureus (MRSA); [3]", "value": 100, "unit": "%"}, {"measurement": "% of strains producing colored or fluorescent colonies", "setting": "S. aureus (MRSA); [4]", "value": 100, "unit": "%"}, {"measurement": "% of strains producing colored or fluorescent colonies", "setting": "S. aureus (MRSA); [5]", "value": 100, "unit": "%"}, {"measurement": "% of strains producing colored or fluorescent colonies", "setting": "S. aureus (MSSA); [3]", "value": 100, "unit": "%"}, {"measurement": "% of strains producing colored or fluorescent colonies", "setting": "S. aureus (MSSA); [4]", "value": 100, "unit": "%"}, {"measurement": "% of strains producing colored or fluorescent colonies", "setting": "S. aureus (MSSA); [5]", "value": 100, "unit": "%"}, {"measurement": "% of strains producing colored or fluorescent colonies", "setting": "Micrococcus luteus; [3]", "value": 0, "unit": "%"}, {"measurement": "% of strains producing colored or fluorescent colonies", "setting": "Micrococcus luteus; [4]", "value": 0, "unit": "%"}, {"measurement": "% of strains producing colored or fluorescent colonies", "setting": "Micrococcus luteus; [5]", "value": 0, "unit": "%"}, {"measurement": "% of strains producing colored or fluorescent colonies", "setting": "Enterococci; [3]", "value": 30, "unit": "%"}, {"measurement": "% of strains producing colored or fluorescent colonies", "setting": "Enterococci; [4]", "value": 30, "unit": "%"}, {"measurement": "% of strains producing colored or fluorescent colonies", "setting": "Enterococci; [5]", "value": 48, "unit": "%"}]}]}
